Reference: the supplement of paper PMC12325586

System: MIA PaCa-2
Experimental: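 MIA PaCa-2 Tet-on shOFD1 pancreatic cancer cells (2000 cells/well, 96-well) were treated with Selleck FDA-approved library compounds at 0, 1, 5, 10, 25 and 50 µM, with extra concentrations added where needed, for 72 h at 37 °C. Knockdown wells also received 100 ng/mL doxycycline; control wells received DMSO without doxycycline. Viability was read by CCK-8 absorbance at 450 nm and normalised to DMSO control wells. IC50 was fitted in GraphPad Prism as a 4-parameter logistic with bottom fixed at 0 and top fixed at 1; at least 3 technical replicate wells per condition.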

[1] = OFD1 knockdown: no (no doxycycline)
[2] = OFD1 knockdown: yes (Tet-on shOFD1, 100 ng/mL doxycycline)

Row | IC50 cell viability [1] | IC50 cell viability [2] | SMILES
1 | 53.1 µM | 52.4 µM | C=CC(=O)N1CCC[C@@H](n2nc(-c3ccc(Oc4ccccc4)cc3)c3c(N)ncnc32)C1 [S2680]
2 | 46.5 µM | 45.7 µM | C=C1/C(=C\C=C2/CCC[C@]3(C)[C@@H]([C@H](C)/C=C/[C@H](C)C(C)C)CC[C@@H]23)C[C@@H](O)C[C@@H]1O [S1467]
3 | 13.6 µM | 14.3 µM | CC1=C(/C=C/C(C)=C/C=C/C(C)=C/C(=O)O)C(C)(C)CCC1 [S1653]
4 | 61.8 µM | 69 µM | CS(=O)(=O)c1ccc(C(=O)Nc2ccc(Cl)c(-c3ccccn3)c2)c(Cl)c1 [S1082]
5 | 19 µM | 17.7 µM | Cc1c(C(=O)NN2CCCCC2)nn(-c2ccc(Cl)cc2Cl)c1-c1ccc(Cl)cc1 [S3021]
6 | 13.3 µM | 12.1 µM | CC[C@@H]1C(=O)N(C)c2cnc(Nc3ccc(C(=O)N[C@H]4CC[C@H](N5CCN(CC6CC6)CC5)CC4)cc3OC)nc2N1C(C)C [S2235]
7 | 2.01 µM | 1.81 µM | CC(=O)O[C@]1(C(C)=O)CC[C@H]2[C@@H]3C=C(C)C4=CC(=O)CC[C@]4(C)[C@H]3CC[C@@]21C [S1304]
8 | 53.8 µM | 56.4 µM | CCOc1cc2ncc(C#N)c(Nc3ccc(F)c(Cl)c3)c2cc1NC(=O)/C=C/CN(C)C [S1392]
9 | 22.7 µM | 24.4 µM | CC[C@H](Nc1ncnc2[nH]cnc12)c1nc2cccc(F)c2c(=O)n1-c1ccccc1 [S2226]
10 | 21.9 µM | 20.3 µM | CC[C@H](NC(=O)[C@H](C)NC)C(=O)N1C[C@@H](O)C[C@H]1Cc1c(-c2[nH]c3cc(F)ccc3c2C[C@@H]2C[C@H](O)CN2C(=O)[C@H](CC)NC(=O)[C@H](C)NC)[nH]c2cc(F)ccc12 [S7015]
11 | 3.75 µM | 3.86 µM | Cc1ccc(C(=O)Nc2ccc(CN3CCN(C)CC3)c(C(F)(F)F)c2)cc1C#Cc1cnc2cccnn12 [S1490]
12 | 43.2 µM | 47.2 µM | CCc1c2c(nc3ccc(OC(=O)N4CCC(N5CCCCC5)CC4)cc13)-c1cc3c(c(=O)n1C2)COC(=O)[C@]3(O)CC [S2217]
13 | 23 µM | 22.1 µM | CC1(C)O[C@@H]2C[C@H]3[C@@H]4CCC5=CC(=O)C=C[C@]5(C)[C@@]4(F)[C@@H](O)C[C@]3(C)[C@]2(C(=O)CO)O1 [S1628]
14 | 1.44 µM | 1.4 µM | Cc1ccc(C(=O)N(CCCN)[C@@H](c2nc3cc(Cl)ccc3c(=O)n2Cc2ccccc2)C(C)C)cc1 [S1452]
15 | 44 µM | 42.9 µM | Nc1cccc2c1CN(C1CCC(=O)NC1=O)C2=O (stereo not drawn) [S1029]
16 | 15 µM | 14.8 µM | Cc1ccc(NC(=O)c2ccc(CN3CCN(C)CC3)cc2)cc1Nc1nccc(-c2cccnc2)n1 [S1026]
17 | 12.9 µM | 11.7 µM | CN1CCN(c2ccc3nc(-c4c(N)c5c(F)cccc5[nH]c4=O)[nH]c3c2)CC1 [S1018]
18 | 74.8 µM | 77.2 µM | Nc1ncn([C@H]2C[C@H](O)[C@@H](CO)O2)c(=O)n1 [S1200]
19 | 0.56 µM | 0.54 µM | CO[C@H]1C[C@@H]2CC[C@@H](C)[C@@](O)(O2)C(=O)C(=O)N2CCCC[C@H]2C(=O)O[C@H]([C@H](C)C[C@@H]2CC[C@@H](O)[C@H](OC)C2)CC(=O)[C@H](C)/C=C(\C)[C@@H](O)[C@@H](OC)C(=O)[C@H](C)C[C@H](C)/C=C/C=C/C=C/1C [S1039]
20 | 25.6 µM | 24.5 µM | C[C@]12CC[C@@H]3c4ccc(O)cc4C[C@@H](CCCCCCCCC[S+]([O-])CCCC(F)(F)C(F)(F)F)[C@H]3[C@@H]1CC[C@@H]2O (stereo partly drawn) [S1191]
21 | 21.9 µM | 21.2 µM | N[C@@H](CC(=O)N1CCn2c(nnc2C(F)(F)F)C1)Cc1cc(F)c(F)cc1F [S4002]
22 | 28.8 µM | 27.2 µM | OC(CNCC(O)C1CCc2cc(F)ccc2O1)C1CCc2cc(F)ccc2O1 (stereo not drawn) [S1549]
23 | 17 µM | 17.6 µM | CCCS(=O)(=O)Nc1ccc(F)c(C(=O)c2c[nH]c3ncc(-c4ccc(Cl)cc4)cc23)c1F [S1267]
24 | 45.1 µM | 39.6 µM | CC(C)C[C@H](NC(=O)CNC(=O)c1cc(Cl)ccc1Cl)B(O)O [S2180]
25 | 27.5 µM | 27.7 µM | S=c1[nH]cnc2nc[nH]c12 [S1305]

Row | IC50 cell viability [1] | IC50 cell viability [2] | SMILES
26 | 30.8 µM | 24.3 µM | Clc1ccc(Nc2nnc(Cc3ccncc3)c3ccccc23)cc1 [S1101]
27 | 16.7 µM | 15.1 µM | CCN(CCO)CCCOc1ccc2c(Nc3cc(CC(=O)Nc4cccc(F)c4)[nH]n3)ncnc2c1 [S1147]
28 | 18.1 µM | 17.6 µM | COc1cc2nc(N3CCN(C(=O)C4COc5ccccc5O4)CC3)nc(N)c2cc1OC (stereo not drawn) [S1324]
29 | 77.2 µM | 83.8 µM | Cc1ccc(-n2nc(C(C)(C)C)cc2NC(=O)Nc2ccc(OCCN3CCOCC3)c3ccccc23)cc1 [S1574]
30 | 22.9 µM | 22.7 µM | Cc1cc(Nc2cc(N3CCN(C)CC3)nc(Sc3ccc(NC(=O)C4CC4)cc3)n2)n[nH]1 [S1048]
31 | 3.36 µM | 3.16 µM | Nc1ccn([C@@H]2O[C@H](CO)[C@@H](O)C2(F)F)c(=O)n1 [S1714]
32 | 18.9 µM | 18 µM | CN1CCN(C2=Nc3cc(Cl)ccc3Nc3ccccc32)CC1 [S2459]
33 | 13.1 µM | 13.5 µM | COc1cc2c(Oc3ccc4[nH]c(C)cc4c3F)ncnc2cc1OCCCN1CCCC1 [S1017]
34 | 22.1 µM | 23 µM | CCC(C)n1ncn(-c2ccc(N3CCN(c4ccc(OCC5COC(Cn6cncn6)(c6ccc(Cl)cc6Cl)O5)cc4)CC3)cc2)c1=O (stereo not drawn) [S2476]
35 | 18 µM | 18.8 µM | C[C@]12CC[C@@H]3c4ccc(O)cc4CC[C@H]3[C@@H]1CC[C@@H]2O [S1709]
36 | 11.5 µM | 11.4 µM | O=c1[nH]c(=O)n([C@H]2C[C@H](O)[C@@H](CO)O2)cc1F [S1299]
37 | 8.24 µM | 10.5 µM | COc1cc(Nc2ncc3c(n2)-c2ccc(Cl)cc2C(c2c(F)cccc2OC)=NC3)ccc1C(=O)O [S1133]
38 | 2.26 µM | 1.95 µM | Nc1nc(F)nc2c1ncn2[C@@H]1O[C@H](COP(=O)(O)O)[C@@H](O)[C@@H]1O [S1229]
39 | 10.2 µM | 9.8 µM | Cc1ccc(O)c([C@H](CCN(C(C)C)C(C)C)c2ccccc2)c1 [S2550]
40 | 27 µM | 24 µM | CO[C@H]1C[C@@H]2CC[C@@H](C)[C@@](O)(O2)C(=O)C(=O)N2CCCC[C@H]2C(=O)O[C@H]([C@H](C)C[C@@H]2CC[C@@H](OC(=O)C(C)(CO)CO)[C@H](OC)C2)CC(=O)[C@H](C)/C=C(\C)[C@@H](O)[C@@H](OC)C(=O)[C@H](C)C[C@H](C)/C=C/C=C/C=C/1C [S1044]
41 | 5.55 µM | 5.13 µM | O=C(CCCCCCC(=O)Nc1ccccc1)NO [S1047]
42 | 2.19 µM | 2.81 µM | CO[C@H]1C[C@@H]2CC[C@@H](C)[C@@](O)(O2)C(=O)C(=O)N2CCCC[C@H]2C(=O)O[C@H]([C@H](C)C[C@@H]2CC[C@@H](OCCO)[C@H](OC)C2)CC(=O)[C@H](C)/C=C(\C)[C@@H](O)[C@@H](OC)C(=O)[C@H](C)C[C@H](C)/C=C/C=C/C=C/1C [S1120]
43 | 82.1 µM | 70.3 µM | O=S(=O)(O)CCSSCCS(=O)(=O)O [S1201]
44 | 19.7 µM | 21.3 µM | C=C(c1ccc(C(=O)O)cc1)c1cc2c(cc1C)C(C)(C)CCC2(C)C [S2098]
45 | 26.2 µM | 25 µM | CCC(C)(C)C(=O)O[C@H]1C[C@@H](C)C=C2C=C[C@H](C)[C@H](CC[C@@H]3C[C@@H](O)CC(=O)O3)[C@H]21 [S1792]
46 | 5.3 µM | 4.97 µM | COc1cc2nccc(Oc3ccc(NC(=O)C4(C(=O)Nc5ccc(F)cc5)CC4)cc3)c2cc1OC [S4001]
47 | 20.9 µM | 21.3 µM | CC[C@]1(O)C[C@H]2CN(CCc3c([nH]c4ccccc34)[C@@](C(=O)OC)(c3cc4c(cc3OC)N(C=O)[C@H]3[C@@](O)(C(=O)OC)[C@H](OC(C)=O)[C@]5(CC)C=CCN6CC[C@]43[C@@H]65)C2)C1 [S1241]
48 | 2.42 µM | 2.01 µM | CC(C)c1cc(-c2n[nH]c(=O)n2-c2ccc3c(ccn3C)c2)c(O)cc1O [S1159]
49 | 19 µM | 17.6 µM | CC(=O)O[C@H]1C(=O)[C@@]2(C)[C@H]([C@H](OC(=O)c3ccccc3)[C@]3(O)C[C@H](OC(=O)[C@H](O)[C@@H](NC(=O)c4ccccc4)c4ccccc4)C(C)=C1C3(C)C)[C@]1(OC(C)=O)CO[C@@H]1C[C@@H]2O [S1150]
50 | 0.39 µM | 0.34 µM | CC(=O)O[C@@]12CO[C@@H]1C[C@H](O)[C@@]1(C)C(=O)[C@H](O)C3=C(C)[C@@H](OC(=O)[C@H](O)[C@@H](NC(=O)OC(C)(C)C)c4ccccc4)C[C@@](O)([C@@H](OC(=O)c4ccccc4)[C@H]21)C3(C)C [S1148]

Row | SMILES | IC50 cell viability [1] | IC50 cell viability [2]
51 | O=P1(NCCCl)OCCCN1CCCl (stereo not drawn) [S1302] | 53 µM | 55.2 µM
52 | Cn1cc(C2=C(c3cn(C4CCN(Cc5ccccn5)CC4)c4ccccc34)C(=O)NC2=O)c2ccccc21 [S1055] | 13.8 µM | 12.5 µM
53 | C/C(=C\c1csc(C)n1)[C@@H]1C[C@@H]2O[C@]2(C)CCC[C@H](C)[C@H](O)[C@@H](C)C(=O)C(C)(C)[C@@H](O)CC(=O)O1 [S1364] | 0.76 µM | 0.87 µM
54 | CC(O)(CS(=O)(=O)c1ccc(F)cc1)C(=O)Nc1ccc(C#N)c(C(F)(F)F)c1 (stereo not drawn) [S1190] | 53.5 µM | 45.6 µM
